Data: patent US20230321251A1, “LIPOSOME FORMULATION CONTAINING ANTIBACTERIAL AGENT” (priority 2020, published 2023)
Converted amounts (≈) assume the structure as drawn.

Experiments:
[1] = system: S. aureus ATCC700787; assay: In vitro antibacterial activity (MIC), agar plate dilution; format: cell-based, Staphylococcus aureus; conditions: Staphylococcus aureus, ATCC700787, read-out: minimum inhibitory concentration (MIC)
Method: (§1) A minimum inhibitory concentration was measured as in vitro antibacterial activity. The minimum inhibitory concentration (MIC: μg/ml) was measured according to the standard method of Japanese Society of Chemotherapy, by an agar plate dilution method using 1000 cfu/spot as an inoculum amount and a susceptibility disk medium as a test medium.
(§2) In the tables, a unit of a numerical value of inhibitory activity is μg/ml. In addition, in the tables, S. aureus represents Staphylococcus aureus and E. faecalis represents Gram-positive group D streptococci (enterococci) that are resident in a normal bacterial flora of a human intestinal tract, and can be causative bacteria of endocarditis and the like after surgery.

[2] = system: S. aureus VRS1; assay: as above; format: cell-based, Staphylococcus aureus; conditions: Staphylococcus aureus, VRS1, read-out: minimum inhibitory concentration (MIC), S. aureus VRS1, 1000 cfu/spot
Method: as §1, §2

[3] = system: S. aureus ATCC25923; assay: as above; format: cell-based, Staphylococcus aureus; conditions: Staphylococcus aureus, ATCC25923, read-out: minimum inhibitory concentration (MIC), S. aureus ATCC25923, 1000 cfu/spot
Method: as §1, §2

[4] = In vitro cytotoxicity test (resazurin); format: cell-based; conditions: African green monkey, Vero cells, 72 hours culture
Method: Vero cells (final concentration: 2.0×10 to the power of 4 cells/well) cultured in advance and each test substance were added to 96 wells, and cultured for 72 hours under conditions of 5% CO2 and 37° C. Thereafter, 10 μl/well of a 0.01% resazurin solution was added, and after mixing, the cells were cultured under conditions of 5% CO2 and 37° C. for 4 hours, and then a fluorescence value (Ex 531 nm/Em 590 nm) was measured using a microplate reader.

[5] = system: 2% red blood cell suspension (defibrated sheep blood); assay: In vitro hemolysis test; format: cell-based; conditions: sheep red blood cells, 24 hours incubation
Method: Hemolysis rates of the compound A drug substance and the liposome formulation of Example 2 were evaluated by the following methods.
A 10 mM concentration solution of each test substance was prepared using a 5% sugar solution as a solvent, and 12 types of formulation solutions were prepared for each test substance up to 0.0049 mM by 2-fold serial dilution. Using 20% FBS-supplemented M-199 medium (With Earle's salts, sodium bicarbonate and 25 mM HEPES, supplement with 0.1 g/L L-glutamine) as a medium, a 2% red blood cell suspension (defibrated sheep blood) was prepared and mixed with a solvent or each test substance formulation solution (n=2). […] A mixed solution of the solvent or each test substance formulation solution and the red blood cell suspension or the medium was incubated for 24 hours, then the supernatant was collected, and an absorbance at 540 nm was measured. At the stage of completion of each incubation, an absorbance of the solvent and the red blood cell suspension, and an absorbance of the solvent and the medium were set to a reference of “hemolysis rate 0%”, and an absorbance of the 100% hemolysis solution was set to a reference of “100% hemolysis”, and a hemolysis rate by mixing and incubating each test substance formulation solution and the red blood cell suspension was calculated by the following calculation formula. […]

[6] = system: E. faecium SRM1101; assay: In vitro antibacterial activity (MIC), agar plate dilution; format: cell-based; conditions: Enterococcus faecium, SRM1101, read-out: minimum inhibitory concentration (MIC)
Method: as §1, §2

[7] = system: S. aureus SR3637; assay: as above; format: cell-based; conditions: Staphylococcus aureus, SR3637, read-out: minimum inhibitory concentration (MIC), S. aureus SR3637, 1000 cfu/spot
Method: as §1, §2

[8] = system: E. faecalis SR1004; assay: as above; format: cell-based; conditions: Enterococcus faecalis, SR1004, read-out: minimum inhibitory concentration (MIC), E. faecalis SR1004, 1000 cfu/spot
Method: as §1, §2

[9] = system: E. faecalis SR7914; assay: as above; format: cell-based; conditions: Enterococcus faecalis, SR7914, read-out: minimum inhibitory concentration (MIC), E. faecalis SR7914, 1000 cfu/spot
Method: as §1, §2

[10] = system: E. faecium SR7940; assay: as above; format: cell-based; conditions: Enterococcus faecium, SR7940, read-out: minimum inhibitory concentration (MIC), E. faecium SR7940, 1000 cfu/spot
Method: as §1, §2

**Q.** For `CN[C@H](CC(C)C)C(=O)NC1C(=O)N[C@@H](CC(N)=O)C(=O)N[C@H]2C(=O)N[C@H]3C(=O)N[C@H](C(=O)N[C@@H](C(=O)O)c4cc(O)cc(O)c4-c4cc3ccc4O)[C@H](O[C@H]3C[C@](C)(N)[C@@H](O)[C@H](C)O3)c3ccc(c(Cl)c3)Oc3cc2cc(c3O[C@@H]2O[C@H](CO)[C@@H](O[C@@H]3O[C@H](CNCc4ccc(-c5ccc(Cl)cc5)s4)[C@H](O)[C@H](O)[C@H]3O)[C@H](O)[C@H]2O)Oc2ccc(cc2Cl)[C@H]1O` (stereo partly shown) [Compound A drug substance], which MIC [1] is on record?
**A.** 2 µg/mL (≈ 1.1 µM)

**Q.** What about the MIC [2] of the same molecule?
**A.** 4 µg/mL (≈ 2.2 µM)

**Q.** And the MIC [3]?
**A.** 1 µg/mL (≈ 0.55 µM)

**Q.** And the CC50 at 72 h [4]?
**A.** 128 µg/mL (≈ 70.4 µM)

**Q.** And the Hemolysis rate [5]?
**A.** 34%

**Q.** And the MIC [6]?
**A.** 2 µg/mL (≈ 1.1 µM)

**Q.** What about the MIC [7] of the same molecule?
**A.** 1 µg/mL (≈ 0.55 µM)

**Q.** What about the MIC [8] of the same molecule?
**A.** 0.5 µg/mL (≈ 0.275 µM)

**Q.** And the MIC [9]?
**A.** 2 µg/mL (≈ 1.1 µM)

**Q.** And the MIC [10]?
**A.** 2 µg/mL (≈ 1.1 µM)
